# Data published in patent publication US7081447B2, “Organic compounds with biological activity as thrombin inhibitors and use thereof” (Novel Science International GmbH, priority 2001, dated 2006).
# Biological target: T1, thrombin (Homo sapiens, UniProt P00734)
# Test: not given
# Details: cited from earlier work
row,Substance,Ki
1,H-D-Phe-Pro-Arg-H,70 nM

# Biological target: T1, thrombin
# Test: in vitro inhibition of thrombin amidase activity (fluorogenic substrate Tos-Gly-Pro-Arg-(7-amino-4-methylcoumarin))
# Format: biochemical
# Set-up: with 10 μL of human thrombin solution
# Details: peptide concentration of 250 nM
# Description: (§1) The values of the inhibition constant Ki were obtained from assays, in which thrombin hydrolyzes the fluorogenic substrate Tos-Gly-Pro-Arg-(7-amino-4-methylcoumarin). The assays were performed in 30 μL of assay buffer (0.05 M Tris, 0.1 M NaCl, 0.1% PEG 8000, pH 7.6) with 10 μL of human thrombin solution (10^−5 U/μL in assay buffer) and 140 μL of a solution of the fluorogenic substrate in assay buffer at a concentration v of 30 μM. Solutions of the test compound (10 μL) were added at various concentrations. The rates of substrate hydrolysis were measured by monitoring the reactions of 7-amino-4-methylcoumarin release at 460 nm with use of AMC. The reaction reached a steady state within 3 minutes after thrombin was combined with the substrate and an inhibitor. The kinetic data of the competitive inhibition (Km, Vmax, and Ki) were analyzed with the aid of the Hanes plot (A/V vs. A at various i values).
# as §1, with “concentration” for “concentration v”, “using” for “with the aid of”, “values for A; here, A is the substrate concentration and V the reaction rate).” for “i values).”
# as §1, with “conducted” for “performed”, “concentration” for “concentration v”, “using” for “with the aid of”, “values for A; here, A is the substrate concentration and V the reaction rate).” for “i values).”
row,Thrombin inhibition (thrombin amidase activity),Substance
1,74%,N-Acetyl-L-Tea-D-Cha-L-Aze-D-Tyr-L-Har amide [Example 82]
2,76%,N-Acetyl-L-Trp-D-Cha-L-Aze-D-Tyr-L-Har amide [Example 75]

# Same assay, conditions: peptide concentration of 1 μM
row,Thrombin inhibition (thrombin amidase activity),Substance
1,21%,N-Acetyl-L-Ser-D-Glu-L-Cha-D-Pro-D-Tyr-L-Arg amide [Example 23]
2,48%,N-Acetyl-L-Ser-D-Val-L-Cha-D-Pro-D-Tyr-L-Arg amide [Example 16]
3,31%,N-Acetyl-L-Ser-L-Cha-D-Pro-D-Tyr-L-Arg amide [Example 22]
4,43%,N-Acetyl-L-Ser-L-Cha-L-Cha-D-Pro-D-Tyr-L-Arg amide [Example 19]
5,63%,N-Acetyl-L-Trp-L-Cha-D-Pro-D-Tyr-L-Arg amide [Example 33]
6,44%,N-Acetyl-L-Tyr-D-Pro-L-Cha-D-Pro-D-Tyr-L-Arg amide [Example 39]

# Same assay, conditions: peptide concentration of 1 μM; 1 µM
row,Thrombin inhibition (thrombin amidase activity),Substance
1,48%,N-Acetyl-L-Ser-L-Ala-L-Cha-D-Pro-D-Tyr-L-Arg amide [Example 17]
2,47%,N-Acetyl-L-Ser-L-Ala-L-Cha-D-Pro-D-Tyr-L-Arg amide [Example 34]
3,47%,N-Acetyl-L-Ser-L-Ala-L-Cha-D-Pro-D-Tyr-L-Arg amide [Example 49]
4,47%,N-Acetyl-L-Ser-L-Ala-L-Cha-D-Pro-D-Tyr-L-Arg amide [Example 67]
5,67%,N-Acetyl-L-Ser-L-Arg-L-Cha-D-Pro-D-Tyr-L-Arg amide [Example 18]
6,51%,N-Acetyl-L-Ser-L-Arg-L-Cha-D-Pro-D-Tyr-L-Arg amide [Example 35]
7,51%,N-Acetyl-L-Ser-L-Arg-L-Cha-D-Pro-D-Tyr-L-Arg amide [Example 50]
8,51%,N-Acetyl-L-Ser-L-Arg-L-Cha-D-Pro-D-Tyr-L-Arg amide [Example 68]
9,49%,N-Acetyl-L-Ser-L-Ser-L-Cha-D-Pro-D-Tyr-L-Arg amide [Example 13]
10,40%,N-Acetyl-L-Ser-L-Ser-L-Cha-D-Pro-D-Tyr-L-Arg amide [Example 31]
11,40%,N-Acetyl-L-Ser-L-Ser-L-Cha-D-Pro-D-Tyr-L-Arg amide [Example 46]
12,40%,N-Acetyl-L-Ser-L-Ser-L-Cha-D-Pro-D-Tyr-L-Arg amide [Example 64]
13,51%,N-Acetyl-L-Tyr-L-Cit-L-Cha-D-Pro-D-Tyr-L-Arg amide [Example 15]
14,55%,N-Acetyl-L-Tyr-L-Cit-L-Cha-D-Pro-D-Tyr-L-Arg amide [Example 30]
15,55%,N-Acetyl-L-Tyr-L-Cit-L-Cha-D-Pro-D-Tyr-L-Arg amide [Example 45]
16,55%,N-Acetyl-L-Tyr-L-Cit-L-Cha-D-Pro-D-Tyr-L-Arg amide [Example 63]
